Measured values reported in publication PMC5988656, “Phase I studies of AZD1208, a proviral integration Moloney virus kinase inhibitor in solid and haematological cancers” (British Journal of Cancer, 2018).
Where “and” joins values, the source holds several entries; their conditions need not be identical. Equal entries are not always repeated.

Assays:
[1] = AML dose-escalation study: pharmacokinetics (plasma, urine); assay type: in vivo, human; settings: for Gmean plasma concentration of AZD1208 (± SD): Cycle 1, Day 14
Description: The schedules for collection of blood and urine samples for PK analyses in each cohort in both studies are described in Supplementary Table 1. When necessary for clinical response assessment in the AML study, a bone marrow sample for PK analysis was collected at Cycle 1, Day 28.
The concentration of AZD1208 in plasma and urine was determined by Covance, on behalf of Clinical Bioanalysis Alliance at AstraZeneca R&D, using a bioanalytical method. A volume of 0.05 ml of K2EDTA human plasma sample was extracted by liquid–liquid extraction using 0.7 ml of methyl tert-butyl ether. Approximately 100 µl of the supernatant was transferred, evaporated to dryness and reconstituted with 350 µl of 1:1 methanol:water, and a 5 µl injection was made to the high-performance liquid chromatography (HPLC) column. HPLC separations were performed on a Phenomenex LUNA C18 (50 × 2 mm, 5 µm) column using a mobile phase of 0.1% formic acid in water (A) and 0.1% formic acid in acetonitrile (B) at a flow rate of 0.6 ml/min and a column temperature of 40 °C. AZD1208-D5 was used as the internal standard. Detection was performed in a Sciex API4000 mass spectrometer, in a positive electrospray ionisation mode, using multiple reaction monitoring detection (AZD1208: 380.0–>248.1; AZD1208-D5: 385.0–>253.1).

[2] = test system: CYP3A4; assay: CYP3A4 activity assessed by 4-β-hydroxycholesterol levels, solid tumour study; assay type: in vivo, human; settings: for 4-β-hydroxycholesterol Day 15 concentration / 4-β-hydroxycholesterol ratio (Day 15/Day 1): individual subjects
Description: In the solid tumour study, blood samples for 4β-hydroxycholesterol analysis were collected pre-dose at Cycle 0, Day 1; Cycle 1 (Day 8 and 15); and Cycle 2, Day 15.
The activity of CYP3A4 was assessed by analysing 4-β-hydroxycholesterol levels in samples collected from five patients at AZD1208 doses of 700 or 800 mg.

[3] = test system: MYC-driven prostate cancer models; set-up: method as in PMID 25505253; settings: cited from earlier work

N[C@@H]1CCCN(c2c(/C=C3\SC(=O)NC3=O)cccc2-c2ccccc2)C1 [AZD1208]
Gmean plasma concentration of AZD1208 (± SD) ([1]; 1 h post-dose, 120 mg, n=3): 2050.2 (1514.6, 2775.2) ng ml
Gmean plasma concentration of AZD1208 (± SD) ([1]; 1 h post-dose, 480 mg, n=6): 4956.2 (1164.7, 21 090.8) ng ml
Gmean plasma concentration of AZD1208 (± SD) ([1]; 1 h post-dose, 700 mg, n=7): 2013.8 (1004.8, 4035.8) ng ml
Gmean plasma concentration of AZD1208 (± SD) ([1]; 1 h post-dose, 900 mg, n=9): 1952.5 (1166.1, 3269.1) ng ml
Gmean plasma concentration of AZD1208 (± SD) ([1]; 1.5 h post-dose, 120 mg, n=3): 2375.1 (1849.1, 3050.7) ng ml
Gmean plasma concentration of AZD1208 (± SD) ([1]; 1.5 h post-dose, 240 mg, n=6): 5142.8 (4058.6, 6516.6) ng ml
Gmean plasma concentration of AZD1208 (± SD) ([1]; 1.5 h post-dose, 480 mg, n=6): 5384.2 (2123.1, 13 654.8) ng ml
Gmean plasma concentration of AZD1208 (± SD) ([1]; 1.5 h post-dose, 700 mg, n=7): 3963.7 (2236.9, 7023.5) ng ml
Gmean plasma concentration of AZD1208 (± SD) ([1]; 1.5 h post-dose, 900 mg, n=9): 2747.1 (1719.7, 4388.3) ng ml
Gmean plasma concentration of AZD1208 (± SD) ([1]; 2 h post-dose, 120 mg, n=3): 2216.3 (1388.5, 3537.7) ng ml
Gmean plasma concentration of AZD1208 (± SD) ([1]; 2 h post-dose, 240 mg, n=6): 6153.8 (5277.1, 7175.8) ng ml
Gmean plasma concentration of AZD1208 (± SD) ([1]; 2 h post-dose, 480 mg, n=6): 5818.8 (2320.7, 14 589.5) ng ml
Gmean plasma concentration of AZD1208 (± SD) ([1]; 2 h post-dose, 700 mg, n=7): 4388.1 (2945.6, 6536.9) ng ml
Gmean plasma concentration of AZD1208 (± SD) ([1]; 2 h post-dose, 900 mg, n=9): 3107.5 (1803.0, 5356.1) ng ml
Gmean plasma concentration of AZD1208 (± SD) ([1]; 3 h post-dose, 120 mg, n=3): 2052.0 (1181.0, 3565.2) ng ml
Gmean plasma concentration of AZD1208 (± SD) ([1]; 3 h post-dose, 240 mg, n=6): 3687.8 (1657.8, 8203.5) ng ml
Gmean plasma concentration of AZD1208 (± SD) ([1]; 3 h post-dose, 480 mg, n=6): 5515.9 (1885.1, 16 139.7) ng ml
Gmean plasma concentration of AZD1208 (± SD) ([1]; 3 h post-dose, 700 mg, n=7): 5521.1 (2560.5, 11 905.2) ng ml
Gmean plasma concentration of AZD1208 (± SD) ([1]; 3 h post-dose, 900 mg, n=9): 3179.0 (1505.2, 6714.4) ng ml
Gmean plasma concentration of AZD1208 (± SD) ([1]; 6 h post-dose, 120 mg, n=3): 1761.5 (1019.2, 3044.5) ng ml
Gmean plasma concentration of AZD1208 (± SD) ([1]; 6 h post-dose, 240 mg, n=6): 3196.3 (1504.2, 6791.5) ng ml
Gmean plasma concentration of AZD1208 (± SD) ([1]; 6 h post-dose, 480 mg, n=6): 5420.2 (1806.5, 16 262.9) ng ml
Gmean plasma concentration of AZD1208 (± SD) ([1]; 6 h post-dose, 700 mg, n=7): 4452.1 (2126.6, 9320.8) ng ml
Gmean plasma concentration of AZD1208 (± SD) ([1]; 6 h post-dose, 900 mg, n=9): 2320.5 (896.7, 6004.8) ng ml
Gmean plasma concentration of AZD1208 (± SD) ([1]; 8 h post-dose, 120 mg, n=3): 1700.4 (974.4, 2967.5) ng ml
Gmean plasma concentration of AZD1208 (± SD) ([1]; 8 h post-dose, 240 mg, n=6): 2735.5 (1203.4, 6218.4) ng ml
Gmean plasma concentration of AZD1208 (± SD) ([1]; 8 h post-dose, 480 mg, n=6): 5248.1 (1804.2, 15 265.9) ng ml
Gmean plasma concentration of AZD1208 (± SD) ([1]; 8 h post-dose, 700 mg, n=7): 4064.8 (2043.6, 8085.1) ng ml
Gmean plasma concentration of AZD1208 (± SD) ([1]; 8 h post-dose, 900 mg, n=9): 2608.4 (2223.6, 3059.7) ng ml
Gmean plasma concentration of AZD1208 (± SD) ([1]; 24 h post-dose, 120 mg, n=3): 1248.3 (485.6, 3208.8) ng ml
Gmean plasma concentration of AZD1208 (± SD) ([1]; 24 h post-dose, 240 mg, n=6): 1818.9 (580.7, 5697.5) ng ml
Gmean plasma concentration of AZD1208 (± SD) ([1]; 24 h post-dose, 480 mg, n=6): 3154.5 (406.4, 24 485.6) ng ml
Gmean plasma concentration of AZD1208 (± SD) ([1]; 24 h post-dose, 700 mg, n=7): 2302.0 (643.6, 8233.0) ng ml
Gmean plasma concentration of AZD1208 (± SD) ([1]; 24 h post-dose, 900 mg, n=9): 593.0 (174.0, 2021.0) ng ml
Gmean plasma concentration of AZD1208 (± SD) ([1]; pre-dose, 120 mg, n=3): 1163.1 (335.5, 4032.0) ng ml
Gmean plasma concentration of AZD1208 (± SD) ([1]; pre-dose, 240 mg, n=6): 2106.9 (693.2, 6845.2) ng ml
Gmean plasma concentration of AZD1208 (± SD) ([1]; pre-dose, 480 mg, n=6): 2302.9 (541.6, 9792.3) ng ml
Gmean plasma concentration of AZD1208 (± SD) ([1]; pre-dose, 700 mg, n=7): 2513.6 (1057.2, 5976.4) ng ml
Gmean plasma concentration of AZD1208 (± SD) ([1]; pre-dose, 900 mg, n=9): 463.1 (444.2, 482.7) ng ml
Patients with marked accumulation (>3-fold) ([1]; across the doses, 7/16 patients): 44%
Median time to maximum plasma concentration (Tmax) ([1]; after a single dose): ~ 3 h
Differences in AZD1208 concentrations between individuals within the same cohort ([1]; after multiple doses): up to 10 fold
Dose proportionality of Cmax and AUC0–24 ([1]; following multiple doses): less than dose proportional
Accumulation ratio ([1]; individual patients at 480 mg): 3.6 and 0.36
Administered dose eliminated unchanged in urine ([1]; within 24 h, all cohorts): < 1%
Increase in 4-β-hydroxycholesterol levels on Day 15 compared with Day 1 ([2]; five patients, 700 or 800 mg): ~ 4 fold
4-β-hydroxycholesterol Day 15 concentration, Gmean (CV%) ([2]; five subjects, 700 or 800 mg): 114.1 (29.2) ng ml
4-β-hydroxycholesterol ratio (Day 15/Day 1), Gmean (CV%) ([2]; five subjects, 700 or 800 mg): 4.38 (23.9)
4-β-hydroxycholesterol Day 15 concentration ([2]; dose 700 mg): 85.5 ng·mL and 91.9 ng·mL and 175 ng·mL
4-β-hydroxycholesterol ratio (Day 15/Day 1) ([2]; dose 700 mg): 3.41 and 5.93 and 4.90
4-β-hydroxycholesterol Day 15 concentration ([2]; dose 800 mg): 128 ng·mL and 110 ng·mL
4-β-hydroxycholesterol ratio (Day 15/Day 1) ([2]; dose 800 mg): 4.67 and 3.49
CYP3A4 activity ([2]; multiple dosing, 700 or 800 mg): induced
Tumour growth [3]: significantly decreased tumour growth
